Test results taken from ChEMBL document CHEMBL1156529, “Unraveling the hidden catalytic activity of vertebrate class IIa histone deacetylases” (Proc Natl Acad Sci U S A, 2007).
The source made the active and inactive calls. The calls are words filed in the database; no cut-off is given here.

Assays:
[1] = biological target: T1, Histone deacetylase 4 (Homo sapiens, UniProt P56524); assay: Inhibition of HDAC4 catalytic domain expressed in HEK293 cells upto 10,000 nM by Biomol assay; assay type: cell-based
T1 sequence (P56524 whole entry, the tested form may be a part): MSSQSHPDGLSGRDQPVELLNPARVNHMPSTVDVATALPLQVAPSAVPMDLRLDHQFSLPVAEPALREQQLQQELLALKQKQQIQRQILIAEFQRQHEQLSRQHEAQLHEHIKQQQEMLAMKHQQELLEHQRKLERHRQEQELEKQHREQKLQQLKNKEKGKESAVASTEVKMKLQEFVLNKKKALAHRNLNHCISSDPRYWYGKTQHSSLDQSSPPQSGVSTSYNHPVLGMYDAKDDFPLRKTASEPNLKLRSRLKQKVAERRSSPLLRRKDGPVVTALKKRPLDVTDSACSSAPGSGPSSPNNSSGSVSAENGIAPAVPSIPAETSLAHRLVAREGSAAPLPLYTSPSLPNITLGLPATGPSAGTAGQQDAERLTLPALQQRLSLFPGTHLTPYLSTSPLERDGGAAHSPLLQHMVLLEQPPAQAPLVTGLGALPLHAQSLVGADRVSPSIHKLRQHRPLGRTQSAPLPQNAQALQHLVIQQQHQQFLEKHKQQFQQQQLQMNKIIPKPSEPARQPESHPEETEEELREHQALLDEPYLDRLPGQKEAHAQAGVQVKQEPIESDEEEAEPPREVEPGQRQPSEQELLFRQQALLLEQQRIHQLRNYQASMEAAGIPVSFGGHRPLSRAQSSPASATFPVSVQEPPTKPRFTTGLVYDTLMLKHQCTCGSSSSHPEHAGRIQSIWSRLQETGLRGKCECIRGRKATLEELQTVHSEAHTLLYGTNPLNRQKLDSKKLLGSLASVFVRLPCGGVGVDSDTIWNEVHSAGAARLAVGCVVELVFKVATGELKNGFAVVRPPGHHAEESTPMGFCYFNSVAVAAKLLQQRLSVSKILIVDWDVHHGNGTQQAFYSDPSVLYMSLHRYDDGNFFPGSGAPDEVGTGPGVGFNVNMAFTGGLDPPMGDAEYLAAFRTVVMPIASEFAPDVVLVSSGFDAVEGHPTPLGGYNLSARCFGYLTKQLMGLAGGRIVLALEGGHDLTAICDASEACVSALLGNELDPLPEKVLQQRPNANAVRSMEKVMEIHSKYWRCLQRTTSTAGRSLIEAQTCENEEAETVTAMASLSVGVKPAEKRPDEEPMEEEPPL

[2] = biological target: T1, Histone deacetylase 4; assay: Inhibition of flag-tagged HDAC4 expressed in HEK293 cells upto 10,000 nM by Biomol assay; assay type: cell-based
[3] = tested on: Histone deacetylase 5 (Homo sapiens), Q9UQL6 [H1006Y]; assay: Inhibition of HDAC5 H1006Y mutant expressed in HEK293 cells; assay type: cell-based
Sequence of Histone deacetylase 5 (Homo sapiens), Q9UQL6 [H1006Y] (Q9UQL6 whole entry H1006Y): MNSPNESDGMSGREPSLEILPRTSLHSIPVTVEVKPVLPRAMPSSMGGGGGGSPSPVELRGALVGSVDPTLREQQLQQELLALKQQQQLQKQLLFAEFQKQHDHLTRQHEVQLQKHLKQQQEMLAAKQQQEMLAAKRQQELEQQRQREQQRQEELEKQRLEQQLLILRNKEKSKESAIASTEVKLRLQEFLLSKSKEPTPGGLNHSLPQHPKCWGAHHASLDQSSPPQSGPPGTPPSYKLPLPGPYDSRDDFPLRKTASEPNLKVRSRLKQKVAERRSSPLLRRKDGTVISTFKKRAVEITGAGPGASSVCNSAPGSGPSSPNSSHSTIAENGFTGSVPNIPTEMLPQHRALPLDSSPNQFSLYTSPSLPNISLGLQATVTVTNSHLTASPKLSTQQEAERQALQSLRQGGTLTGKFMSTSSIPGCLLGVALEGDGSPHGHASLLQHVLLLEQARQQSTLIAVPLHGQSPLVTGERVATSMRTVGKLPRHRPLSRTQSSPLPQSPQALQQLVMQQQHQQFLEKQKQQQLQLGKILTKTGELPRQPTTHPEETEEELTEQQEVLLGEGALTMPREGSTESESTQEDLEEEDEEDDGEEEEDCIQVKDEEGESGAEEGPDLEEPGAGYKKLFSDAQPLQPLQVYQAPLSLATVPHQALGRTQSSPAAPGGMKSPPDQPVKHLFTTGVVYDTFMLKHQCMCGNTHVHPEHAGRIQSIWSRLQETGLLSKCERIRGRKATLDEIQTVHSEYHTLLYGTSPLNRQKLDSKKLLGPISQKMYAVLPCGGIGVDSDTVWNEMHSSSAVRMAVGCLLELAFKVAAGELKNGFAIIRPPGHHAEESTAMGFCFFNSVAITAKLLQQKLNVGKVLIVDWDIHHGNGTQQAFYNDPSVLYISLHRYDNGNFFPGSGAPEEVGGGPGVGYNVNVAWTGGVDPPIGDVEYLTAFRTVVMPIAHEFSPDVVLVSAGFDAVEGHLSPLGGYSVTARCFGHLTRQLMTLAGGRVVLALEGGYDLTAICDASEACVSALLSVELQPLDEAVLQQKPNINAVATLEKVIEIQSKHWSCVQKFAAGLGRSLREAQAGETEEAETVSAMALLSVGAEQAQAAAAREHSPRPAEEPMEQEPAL

[4] = tested on: T2, Histone deacetylase 7 (Homo sapiens), Q8WUI4 [H843Y]; assay: Inhibition of HDAC7 H843Y mutant expressed in HEK293 cells; assay type: cell-based
T2 sequence (whole entry): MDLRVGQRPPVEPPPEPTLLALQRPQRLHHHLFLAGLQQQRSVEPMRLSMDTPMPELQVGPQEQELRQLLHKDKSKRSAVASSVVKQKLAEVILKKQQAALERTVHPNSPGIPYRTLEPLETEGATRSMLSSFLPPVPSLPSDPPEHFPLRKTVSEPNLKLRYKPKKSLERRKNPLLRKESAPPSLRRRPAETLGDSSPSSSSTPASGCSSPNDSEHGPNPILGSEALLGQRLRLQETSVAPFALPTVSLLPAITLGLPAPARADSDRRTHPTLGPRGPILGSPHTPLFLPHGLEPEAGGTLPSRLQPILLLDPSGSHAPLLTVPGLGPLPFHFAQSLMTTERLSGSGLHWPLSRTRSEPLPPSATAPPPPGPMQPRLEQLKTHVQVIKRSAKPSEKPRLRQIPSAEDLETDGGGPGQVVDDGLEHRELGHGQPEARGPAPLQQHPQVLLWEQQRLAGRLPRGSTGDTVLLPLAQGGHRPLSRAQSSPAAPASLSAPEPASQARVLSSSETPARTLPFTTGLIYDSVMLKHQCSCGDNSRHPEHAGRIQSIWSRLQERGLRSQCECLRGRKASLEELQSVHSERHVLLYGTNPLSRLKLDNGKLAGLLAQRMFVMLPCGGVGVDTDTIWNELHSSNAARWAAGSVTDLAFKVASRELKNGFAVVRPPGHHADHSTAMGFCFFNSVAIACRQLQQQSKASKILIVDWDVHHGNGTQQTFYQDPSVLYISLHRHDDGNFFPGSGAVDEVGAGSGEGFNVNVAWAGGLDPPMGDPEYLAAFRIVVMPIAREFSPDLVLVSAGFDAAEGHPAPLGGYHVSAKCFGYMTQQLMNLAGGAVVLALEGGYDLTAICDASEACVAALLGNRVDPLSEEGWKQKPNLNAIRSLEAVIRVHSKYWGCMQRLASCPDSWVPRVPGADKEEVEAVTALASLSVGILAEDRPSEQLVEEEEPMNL

[5] = biological target: T1, Histone deacetylase 4; assay: Inhibition of flag-tagged HDAC4 by pull-down assay
[6] = biological target: T1, Histone deacetylase 4; assay: Inhibition of flag-tagged HDAC4 by Biomol assay

Compound	Activity [1]	Activity [2]	Activity [3]	Activity [4]	IC50 [5] [nM]	IC50 [6] [nM]
CCC(=O)CCCCC[C@@H]1NC(=O)[C@H]2CCCCN2C(=O)[C@H]([C@@H](C)CC)NC(=O)[C@H](Cc2cn(OC)c3ccccc23)NC1=O	inactive	inactive	inactive	inactive	–	–
CCC(=O)CCCCC[C@H](NC(=O)[C@H]1CCCCN1C(=O)[C@@H](NC(=O)[C@@H](N)Cc1cn(OC)c2ccccc12)[C@@H](C)CC)C(=O)O	–	–	–	–	152	88
O=C(/C=C/c1ccc(CN(CCO)CCc2c[nH]c3ccccc23)cc1)NO	–	–	Active	Active	–	–
CCC(=O)CCCCC[C@H](NC(=O)[C@H]1CCCCN1C(=O)[C@@H](NC(=O)[C@@H](N)Cc1cn(OC)c2ccccc12)[C@H](C)CC)C(=O)O	inactive	inactive	–	–	–	–
